Values joined by “and” are separate entries in the source; they are usually repeats but may differ in a detail not shown here. Identical values can stand only once.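 These data come from cells grown in 96-well plates and exposed to compound for 48 hours at five concentrations. GI50 marks 50% less growth. TGI: concentration producing complete growth inhibition.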
Tests used:
Assay in all cases: NCI tumour cell line growth inhibition, 48 h
[1] = test system: LOX IMVI melanoma
[2] = test system: UACC-257 melanoma
[3] = test system: RPMI-8226 leukemia
[4] = test system: OVCAR-8 ovarian
[5] = test system: NCI-H23 lung
[6] = test system: KM12 colon
[7] = test system: T-47D breast
[8] = test system: MCF7 breast
[9] = test system: NCI/ADR-RES ovarian
[10] = test system: MDA-MB-435

Structure (SMILES) | TGI [1] | TGI [2] | TGI [3] | TGI [4] | TGI [5] | TGI [6] | GI50 [1] | TGI [7] | GI50 [3] | TGI [8] | GI50 [4] | GI50 [6] | GI50 [9] | TGI [9] | TGI [10] | GI50 [10] | GI50 [7] | GI50 [5] | GI50 [2] | GI50 [8]
COc1cc(Cl)c2c3c(c(C(C)=O)oc13)CCC2 | > 100 µM | > 100 µM | > 100 µM | > 100 µM | > 100 µM |  |  |  |  |  |  |  |  |  |  |  |  |  |  | 
CCCCc1c2c(nc3c1CCC/C3=C\c1ccccc1)C(=O)CCC2 | 34.1 µM | 44.8 µM | 45.4 µM | > 100 µM | 58.7 µM | 51.8 µM |  |  |  |  |  |  |  |  |  |  |  |  |  | 
COC(=O)CCc1cc(OC)c2c(c1)C(C(=O)OC)C(c1ccc(OC)c(OC)c1)O2 (stereo not drawn) | > 100 µM | > 100 µM | > 100 µM | > 100 µM | > 100 µM | > 100 µM | > 100 µM and 12.1 µM | > 100 µM | > 100 µM and 22.3 µM | > 100 µM | > 100 µM and 39.6 µM | > 100 µM and 19.6 µM | > 100 µM and 26.8 µM | > 100 µM |  |  |  |  |  | 
COc1ccc([N+]2=NC(c3ccc([N+](=O)[O-])cc3)=NN(c3ccccc3)C2)cc1 | > 100 µM | > 100 µM | 80 µM and > 100 µM | > 100 µM | > 100 µM | > 100 µM |  |  |  |  |  |  |  |  |  |  |  |  |  | 
C=CC1(C(=O)O)CCC(C(C)(C)C)CC1 (stereo not drawn) |  | > 100 µM | > 100 µM | > 100 µM | > 100 µM | > 100 µM |  |  |  |  |  |  |  |  |  |  |  |  |  | 
NC(=O)C(=Cc1ccc(C(O)P(=O)(O)O)cc1)C(N)=O (stereo not drawn) | > 100 µM | > 100 µM | > 100 µM | > 100 µM | > 100 µM | > 100 µM |  |  |  |  |  |  |  |  |  |  |  |  |  | 
CCC1(CC)C(=O)OC(=O)C1(CC)CC | > 100 µM |  | > 100 µM | > 100 µM | > 100 µM | > 100 µM |  | > 100 µM |  |  |  |  |  | > 100 µM | > 100 µM |  |  |  |  | 
O=C(Nc1cc(Cl)c(Cl)cc1Cl)C(=O)C1C=CCS1(=O)=O (stereo not drawn) | > 100 µM | > 100 µM | > 100 µM | > 100 µM | > 100 µM | > 100 µM |  |  |  |  |  |  |  |  |  |  |  |  |  | 
CCNC(=O)CCN(C(=O)O)S(=O)(=O)c1ccc(NC(=O)c2ccccc2)cc1 | 43.8 µM | > 100 µM | > 100 µM | > 100 µM | > 100 µM | > 100 µM |  |  |  |  |  |  |  |  |  |  |  |  |  | 
O=C(/C=C/c1ccc([N+](=O)[O-])o1)N1CCN(Cc2ccccc2)CC1 | 26.6 µM | 20.8 µM | 32.3 µM | 28.4 µM | 18.7 µM | 27.1 µM |  |  |  |  |  |  |  |  |  |  |  |  |  | 
CC1C[C@@]2(c3ccccc3)C(=O)CCC[C@H]2N1 (stereo partly drawn) |  | > 100 µM |  | > 100 µM | > 100 µM | > 100 µM |  |  |  |  |  |  |  |  |  |  |  |  |  | 
O=[N+]([O-])c1cccc(/C=N\NS(=O)(=O)c2ccc(Cl)cc2)c1O | > 100 µM | > 100 µM | > 100 µM | > 100 µM | > 100 µM | > 100 µM |  |  |  |  |  |  |  |  |  |  |  |  |  | 
C=C1C(=O)O[C@H]2[C@H]1CC/C(CNC(=O)c1cc3cc(OC)ccc3[nH]1)=C\CC[C@@]1(C)O[C@@H]21 | 2.67 µM |  | 4.39 µM | 7.78 µM | 4.38 µM | 17.7 µM | 1.36 µM | 4.35 µM | 1.58 µM |  | 2.06 µM | 4.98 µM | 6.07 µM | 23.7 µM | 5.03 µM | 1.73 µM | 1.47 µM | 1.77 µM |  | 
CC1=C(C(=O)Nc2ccccc2C)C(c2ccc(Cl)c(Cl)c2)C(C(=O)Nc2ccccc2C)=C(C)N1 | 37.5 µM | 50.7 µM | 53.7 µM | > 100 µM | 56.7 µM | 87.4 µM |  |  |  |  |  |  |  |  |  |  |  |  |  | 
CCCCOC(=O)NC(=O)c1cn(CCCOC(=O)CCCCCCCCC(=O)OCCCn2cc(C(=O)NC(=O)OCCCC)c(=O)[nH]c2=O)c(=O)[nH]c1=O | > 100 µM | > 100 µM | > 100 µM | > 100 µM | > 100 µM | > 100 µM |  |  |  |  |  |  |  |  |  |  |  |  |  | 
Cc1[nH]c2ccccc2c1C1Cc2ccccc2N1C(=O)/C=C\C(=O)O (stereo not drawn) | 37.6 µM | 37.8 µM |  |  | > 100 µM | > 100 µM |  |  |  |  |  |  |  |  |  |  |  |  |  | 
Nc1c(C(=O)c2ccc(Cl)cc2)sc(Nc2ccccc2)c1-c1nc2ccccc2s1 | > 100 µM | > 100 µM | > 100 µM | > 100 µM | 18.5 µM | > 100 µM | 3.25 µM | > 100 µM | 6.05 µM | > 100 µM | 2.68 µM | 0.812 µM | 3.34 µM | > 100 µM |  |  | 1.46 µM | 1.64 µM | > 100 µM | 1.65 µM
